The experiment concerns the target T1, androgen receptor (Homo sapiens, UniProt P10275).
T1 sequence (P10275 1-920 Q868H): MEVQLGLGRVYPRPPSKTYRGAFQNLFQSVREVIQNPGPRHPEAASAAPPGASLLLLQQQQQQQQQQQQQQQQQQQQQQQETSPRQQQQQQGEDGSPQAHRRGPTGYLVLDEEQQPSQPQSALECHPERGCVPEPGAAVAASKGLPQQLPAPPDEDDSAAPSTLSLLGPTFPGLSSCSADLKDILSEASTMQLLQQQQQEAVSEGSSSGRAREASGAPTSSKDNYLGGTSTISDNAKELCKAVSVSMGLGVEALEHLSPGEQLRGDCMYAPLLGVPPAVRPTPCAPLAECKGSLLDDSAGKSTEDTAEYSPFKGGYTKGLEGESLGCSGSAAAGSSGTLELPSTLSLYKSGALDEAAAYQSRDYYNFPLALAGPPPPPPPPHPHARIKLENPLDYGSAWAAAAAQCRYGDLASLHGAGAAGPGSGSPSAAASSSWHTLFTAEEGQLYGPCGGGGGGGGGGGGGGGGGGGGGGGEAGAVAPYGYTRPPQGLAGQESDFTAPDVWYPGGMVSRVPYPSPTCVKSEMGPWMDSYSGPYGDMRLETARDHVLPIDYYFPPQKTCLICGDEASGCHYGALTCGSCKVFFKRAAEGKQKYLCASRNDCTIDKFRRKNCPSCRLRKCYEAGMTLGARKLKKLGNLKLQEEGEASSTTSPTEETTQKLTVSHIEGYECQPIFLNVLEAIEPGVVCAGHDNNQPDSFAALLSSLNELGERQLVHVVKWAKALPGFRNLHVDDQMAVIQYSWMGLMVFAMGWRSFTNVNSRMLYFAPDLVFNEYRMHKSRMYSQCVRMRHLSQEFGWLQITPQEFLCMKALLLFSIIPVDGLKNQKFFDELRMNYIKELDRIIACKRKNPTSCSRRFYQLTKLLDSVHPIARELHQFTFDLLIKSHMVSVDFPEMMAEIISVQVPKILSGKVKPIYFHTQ
Briefly: AR Antagonist Cell Assay (MMTV-luciferase reporter, DHT-stimulated). The experiment is classed as cell-based. Particulars: MDA-MB453-MMTV clone 54-19 cells; antagonism of 100 pM DHT, 17 hr, luciferase readout. The method in brief: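 MDA-MB453 cells stably carrying MMTV-ARE-firefly luciferase, in 1% charcoal-treated serum, preincubated 30 min with compound (10 uM or 1 uM) then stimulated with 100 pM DHT for 17 h at 37° C. Luminescence read; result as % inhibition of DHT fold induction.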
(Reporter assays use an easily measured gene product as a stand-in for the process of interest.)
As a reminder, the IC50 is the concentration that inhibits the measured activity by half. The low end stands for inhibition by little substance, the high end for a need for much substance. Turning to `Cc1ccc(F)cc1CNS(=O)(=O)c1ccc(Cc2ccc3[nH]c(=O)cc(C(F)(F)F)c3c2)cc1` [Example 67, N-(5-Fluoro-2-methylbenzyl)-4-(2-oxo-4-trifluoromethyl-1,2-dihydroquinolin-6-ylmethyl)-benzenesulfonamide], the concentration for half-maximal inhibition (IC50) came to 8.23 µM. `CC(O)c1cccc(NS(=O)(=O)c2ccc(Cc3ccc4[nH]c(=O)cc(C(F)(F)F)c4c3)cc2)c1` (centres unmarked) [Example 23, N[-3-(1-Hydroxyethyl)phenyl]-4-(2-oxo-4-trifluoromethyl-1,2-dihydroquinolin-6-ylmethyl)-benzenesulfonamide]: the midpoint of inhibition, the IC50, lay at 1.67 µM. This IC50 is about 4.9-fold lower than that of the compound before. For `COCCNS(=O)(=O)c1ccc(Cc2ccc3[nH]c(=O)cc(C(F)(F)F)c3c2)cc1` [Example 53, N-(2-Methoxyethyl)-4-(2-oxo-4-trifluoromethyl-1,2-dihydroquinolin-6-ylmethyl)-benzenesulfonamide] the value was > 10 µM; for `CN(c1ccccc1)S(=O)(=O)c1ccc(Cc2ccc3oc(=O)cc(C(F)(F)F)c3c2)cc1` [Example 114, N-Methyl-4-(2-oxo-4-trifluoromethyl-2H-chromen-6-ylmethyl)-N-phenylbenzenesulfonamide], 5.94 µM; for `O=c1cc(C(F)(F)F)c2cc(Cc3ccc(S(=O)(=O)NCc4c(F)ccc(F)c4Cl)cc3)ccc2[nH]1` [Example 87, N-(2-Chloro-3,6-difluorobenzyl)-4-(2-oxo-4-trifluoromethyl-1,2-dihydroquinolin-6-ylmethyl)-benzenesulfonamide], > 10 µM. Compound `O=c1cc(C(F)(F)F)c2cc(Cc3ccc(S(=O)(=O)Nc4cccc(OC(F)F)c4)cc3)ccc2[nH]1` [Example 36, N-(3-Difluoromethoxyphenyl)-4-(2-oxo-4-trifluoromethyl-1,2-dihydroquinolin-6-ylmethyl)-benzenesulfonamide] came in with an IC50 of 6.14 µM.

Consider `O=c1cc(C(F)(F)F)c2cc(Cc3ccc(S(=O)(=O)Nc4ccc5ncccc5c4)cc3)ccc2o1` [Example 125, 4-(2-Oxo-4-trifluoromethyl-2H-chromen-6-ylmethyl)-N-quinolin-6-ylbenzenesulfonamide], for which the IC50 is > 10 µM.

Turning to `C#Cc1ccc(NS(=O)(=O)c2ccc(Cc3ccc4oc(=O)cc(C(F)(F)F)c4c3)cc2)cc1` [Example 118, N-(4-Ethynylphenyl)-4-(2-oxo-4-trifluoromethyl-2H-chromen-6-ylmethyl)-benzenesulfonamide], half-maximal inhibition (IC50) required 5.47 µM. This lies in the single-digit micromolar range.

Turning to `O=c1cc(C(F)(F)F)c2cc(Cc3ccc(S(=O)(=O)Nc4cccc(OCc5ccccc5)c4)cc3)ccc2o1` [Example 152, N-(3-Benzyloxyphenyl)-4-(2-oxo-4-trifluoromethyl-2H-chromen-6-ylmethyl)-benzenesulfonamide], half-maximal inhibition (IC50) was put at 0.77 µM. Compared with the last compound, the IC50 is about 7.1-fold lower. As to `CC(=O)c1cccc(NS(=O)(=O)c2ccc(Cc3ccc4[nH]c(=O)cc(C(F)(F)F)c4c3)cc2)c1` [Example 21, N-(3-Acetylphenyl)-4-(2-oxo-4-trifluoromethyl-1,2-dihydroquinolin-6-ylmethyl)benzenesulfonamide], it took 9.09 µM to reach half-maximal inhibition (IC50). Consider `CN(CCc1ccccn1)S(=O)(=O)c1ccc(Cc2ccc3[nH]c(=O)cc(C(F)(F)F)c3c2)cc1` [Example 13, N-Methyl-4-(2-oxo-4-trifluoromethyl-1,2-dihydroquinolin-6-ylmethyl)-N-(2-pyridin-2-ylethyl)benzenesulfonamide], for which the IC50 is > 10 µM. For `O=c1cc(C(F)(F)F)c2cc(Cc3ccc(S(=O)(=O)NCCC4=CCCCC4)cc3)ccc2o1` [Example 175, N-(2-Cyclohex-1-enylethyl)-4-(2-oxo-4-trifluoromethyl-2H-chromen-6-ylmethyl)benzenesulfonamide] the value was 8.5 µM; for `CCCCCN(CCO)S(=O)(=O)c1ccc(Cc2ccc3oc(=O)cc(C(F)(F)F)c3c2)cc1` [Example 105], 3.52 µM; for `CCOC(=O)CC(NS(=O)(=O)c1ccc(Cc2ccc3oc(=O)cc(C(F)(F)F)c3c2)cc1)c1ccccc1` (centres unmarked) [Example 205, 3-[4-(2-Oxo-4-trifluoromethyl-2H-chromen-6-ylmethyl)-benzenesulfonylamino]-3-phenylpropionic acid ethyl ester], 3.43 µM. Then `O=c1cc(C(F)(F)F)c2cc(Cc3ccc(S(=O)(=O)Nc4ccccc4N4CCCCC4)cc3)ccc2[nH]1` [Example 41, 4-(2-Oxo-4-trifluoromethyl-1,2-dihydroquinolin-6-ylmethyl)-N-(2-piperidin-1-ylphenyl)-benzenesulfonamide], with > 10 µM. `Cc1ccc2cc(NS(=O)(=O)c3ccc(Cc4ccc5oc(=O)cc(C(F)(F)F)c5c4)cc3)ccc2n1` [Example 139, N-(2-Methylquinolin-6-yl)-4-(2-oxo-4-trifluoromethyl-2H-chromen-6-ylmethyl)-benzenesulfonamide] had an IC50 of 2.03 µM. `CCCN(CCO)S(=O)(=O)c1ccc(Cc2ccc3[nH]c(=O)cc(C(F)(F)F)c3c2)cc1` [Example 8, N-(2-Hydroxyethyl)-4-(2-oxo-4-trifluoromethyl-1,2-dihydroquinolin-6-ylmethyl)-N-propylbenzenesulfonamide] came in with an IC50 of 3.25 µM. This IC50 lies about 1.6-fold higher than the previous one.

`O=C1CCCN1CCCNS(=O)(=O)c1ccc(Cc2ccc3oc(=O)cc(C(F)(F)F)c3c2)cc1` [Example 187, N-[3-(2-Oxopyrrolidin-1-yl)propyl]-4-(2-oxo-4-trifluoromethyl-2H-chromen-6-ylmethyl)benzenesulfonamide] yielded an IC50 of 3.44 µM. Then `C#Cc1ccc(NS(=O)(=O)c2ccc(Cc3ccc4[nH]c(=O)cc(C(F)(F)F)c4c3)cc2)cc1` [Example 15, N-(4-Ethynylphenyl)-4-(2-oxo-4-trifluoromethyl-1,2-dihydroquinolin-ylmethyl)benzenesulfonamide], with 2.8 µM. Then `O=c1cc(C(F)(F)F)c2cc(Cc3ccc(S(=O)(=O)N(Cc4ccccc4)Cc4ccccc4)cc3)ccc2[nH]1` [Example 11, N,N-Dibenzyl-4-(2-oxo-4-trifluoromethyl-1,2-dihydroquinolin-6-ylmethyl)benzenesulfonamide], with > 10 µM; and `CC(=O)c1cccc(NS(=O)(=O)c2ccc(Cc3ccc4oc(=O)cc(C(F)(F)F)c4c3)cc2)c1` [Example 129, N-(3-Acetylphenyl)-4-(2-oxo-4-trifluoromethyl-2H-chromen-6-ylmethyl)benzenesuifonamide], with 2.16 µM; and `O=c1cc(C(F)(F)F)c2cc(Cc3ccc(S(=O)(=O)Nc4ccccc4CO)cc3)ccc2o1` [Example 121, N-(2-Hydroxymethylphenyl)-4-(2-oxo-4-trifluoromethyl-2H-chromen-6-ylmethyl)-benzenesulfonamide], with 3.17 µM. In the case of `O=c1cc(C(F)(F)F)c2cc(Cc3ccc(S(=O)(=O)NCCCCc4ccccc4)cc3)ccc2[nH]1` [Example 70, 4-(2-Oxo-4-trifluoromethyl-1,2-dihydroquinolin-6-ylmethyl)-N-(4-phenylbutyl)-benzenesulfonamide], the IC50 was > 10 µM. For `CCCCN(CCO)S(=O)(=O)c1ccc(Cc2ccc3oc(=O)cc(C(F)(F)F)c3c2)cc1` [Example 100, N-Butyl-N-(2-hydroxyethyl)-4-(2-oxo-4-trifluoromethyl-2H-chromen-6-ylmethyl)-benzenesulfonamide] the value was ~10 µM.

With `O=c1cc(C(F)(F)F)c2cc(Cc3ccc(S(=O)(=O)NCc4c(F)cccc4F)cc3)ccc2o1` [Example 188, N-(2,6-Difluorobenzyl)-4-(2-oxo-4-trifluoromethyl-2H-chromen-6-ylmethyl)benzenesulfonamide], the midpoint of inhibition, the IC50, lay at 1.91 µM.

Consider `CN1CCN(CCCNS(=O)(=O)c2ccc(Cc3ccc4[nH]c(=O)cc(C(F)(F)F)c4c3)cc2)CC1` [Example 75, N-[3-(4-Methylpiperazin-1-yl)propyl]-4-(2-oxo-4-trifluoromethyl-1,2-dihydroquinolin-6-ylmethyl)-benzenesulfonamide], for which the IC50 is 6.7 µM. For `O=c1cc(C(F)(F)F)c2cc(Cc3ccc(S(=O)(=O)NCc4ccccc4C(F)(F)F)cc3)ccc2o1` [Example 201, 4-(2-Oxo-4-trifluoromethyl-2H-chromen-6-ylmethyl)-N-(2-trifluoromethylbenzyl)-benzenesulfonamide] the value was 4.04 µM; for `COc1cc(NS(=O)(=O)c2ccc(Cc3ccc4[nH]c(=O)cc(C(F)(F)F)c4c3)cc2)cc(OC)c1` [Example 34, N-(3,5-Dimethoxyphenyl)-4-(2-oxo-4-trifluoromethyl-1,2-dihydroquinolin-6-ylmethyl)-benzenesulfonamide], > 10 µM; for `O=c1cc(C(F)(F)F)c2cc(Cc3ccc(S(=O)(=O)NCCCn4ccnc4)cc3)ccc2o1` [Example 174, N-(3-Imidazol-1-ylpropyl)-4-(2-oxo-4-triftuoromethyl-2H-chromen-6-ylmethyl)benzenesulfonamide], 5.5 µM.

Values taken from US7098340B2, “Benzyl sulfonamide derivatives” (Warner Lambert Company LLC, priority 2003, dated 2006).
